Test results as given in article PMC11864979, “First-in-class ultralong-target-residence-time p38α inhibitors as a mitosis-targeted therapy for colorectal cancer” (Nature Cancer, 2025).
Where two headings read alike, the source gives them in different places.

Tests used:
Experiment in all cases: selectivity profiling in a panel of 340 wild-type kinases (Reaction Biology Europe)
Type in all cases: binding
340 wild-type kinases [1] = target: T1, 340 wild-type kinases (Homo sapiens, UniProt O43781)
T1 construct: purchased Reaction Biology Europe
T1 sequence (O43781 1-588): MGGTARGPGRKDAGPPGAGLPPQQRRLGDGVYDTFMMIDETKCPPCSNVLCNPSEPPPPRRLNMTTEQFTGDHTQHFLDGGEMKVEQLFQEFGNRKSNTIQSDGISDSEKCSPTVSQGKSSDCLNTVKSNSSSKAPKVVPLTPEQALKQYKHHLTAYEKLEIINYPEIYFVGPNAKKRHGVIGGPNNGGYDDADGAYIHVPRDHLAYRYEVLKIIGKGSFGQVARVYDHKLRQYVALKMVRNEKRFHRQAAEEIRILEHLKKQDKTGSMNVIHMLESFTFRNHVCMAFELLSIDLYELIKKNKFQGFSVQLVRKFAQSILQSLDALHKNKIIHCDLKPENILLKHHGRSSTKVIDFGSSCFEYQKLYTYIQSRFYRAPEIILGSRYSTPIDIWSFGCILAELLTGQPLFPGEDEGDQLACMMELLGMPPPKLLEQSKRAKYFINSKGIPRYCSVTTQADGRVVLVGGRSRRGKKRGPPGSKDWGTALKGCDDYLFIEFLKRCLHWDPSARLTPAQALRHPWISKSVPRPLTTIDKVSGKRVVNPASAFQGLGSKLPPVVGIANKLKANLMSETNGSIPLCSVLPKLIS

340 wild-type kinases [2] = target: T2, 340 wild-type kinases (Homo sapiens, UniProt P05129)
T2 construct: purchased Reaction Biology Europe

340 wild-type kinases [3] = target: T3, 340 wild-type kinases (Homo sapiens, UniProt Q15759)
T3 construct: purchased Reaction Biology Europe

340 wild-type kinases [4] = target: T4, 340 wild-type kinases (Homo sapiens, UniProt Q96PY6)
T4 construct: purchased Reaction Biology Europe
T4 sequence (Q96PY6 1-1258): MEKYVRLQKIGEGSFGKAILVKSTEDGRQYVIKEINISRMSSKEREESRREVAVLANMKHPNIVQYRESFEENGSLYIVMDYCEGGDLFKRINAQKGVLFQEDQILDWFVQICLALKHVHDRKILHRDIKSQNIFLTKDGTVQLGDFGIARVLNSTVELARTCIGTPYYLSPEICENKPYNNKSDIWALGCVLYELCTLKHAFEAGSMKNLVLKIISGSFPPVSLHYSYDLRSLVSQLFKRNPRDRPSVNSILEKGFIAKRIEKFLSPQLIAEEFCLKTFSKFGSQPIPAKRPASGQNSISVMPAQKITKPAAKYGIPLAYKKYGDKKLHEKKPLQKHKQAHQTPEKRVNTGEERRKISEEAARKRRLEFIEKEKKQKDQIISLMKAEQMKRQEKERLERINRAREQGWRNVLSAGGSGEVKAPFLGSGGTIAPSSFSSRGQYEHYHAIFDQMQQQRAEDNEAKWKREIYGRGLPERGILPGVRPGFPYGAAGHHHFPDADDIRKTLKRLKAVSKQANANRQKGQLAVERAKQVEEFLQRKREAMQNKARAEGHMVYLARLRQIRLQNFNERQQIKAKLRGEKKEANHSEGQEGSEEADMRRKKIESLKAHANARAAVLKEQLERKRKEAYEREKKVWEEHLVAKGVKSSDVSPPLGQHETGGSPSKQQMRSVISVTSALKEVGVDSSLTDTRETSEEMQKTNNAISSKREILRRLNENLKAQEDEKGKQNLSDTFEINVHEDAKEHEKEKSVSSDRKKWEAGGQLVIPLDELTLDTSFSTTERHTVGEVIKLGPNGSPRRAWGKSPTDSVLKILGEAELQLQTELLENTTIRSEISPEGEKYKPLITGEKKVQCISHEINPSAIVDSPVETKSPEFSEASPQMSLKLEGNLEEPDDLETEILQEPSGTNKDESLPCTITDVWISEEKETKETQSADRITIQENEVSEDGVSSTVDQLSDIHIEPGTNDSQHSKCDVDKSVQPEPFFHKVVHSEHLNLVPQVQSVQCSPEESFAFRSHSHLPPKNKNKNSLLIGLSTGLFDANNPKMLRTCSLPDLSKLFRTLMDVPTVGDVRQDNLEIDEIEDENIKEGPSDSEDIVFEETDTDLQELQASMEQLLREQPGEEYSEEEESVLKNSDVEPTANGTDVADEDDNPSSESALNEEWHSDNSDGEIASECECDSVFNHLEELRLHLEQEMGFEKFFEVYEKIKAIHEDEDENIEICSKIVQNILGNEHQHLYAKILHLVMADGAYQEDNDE

340 wild-type kinases [5] = target: T5, 340 wild-type kinases (Homo sapiens, UniProt Q9BYP7)
T5 construct: purchased Reaction Biology Europe

340 wild-type kinases [6] = target: T6, 340 wild-type kinases (Homo sapiens, UniProt Q9NYY3)
T6 construct: purchased Reaction Biology Europe

340 wild-type kinases [7] = target: T7, 340 wild-type kinases (Homo sapiens, UniProt Q9P1W9)
T7 construct: purchased Reaction Biology Europe
T7 sequence (Q9P1W9 whole entry): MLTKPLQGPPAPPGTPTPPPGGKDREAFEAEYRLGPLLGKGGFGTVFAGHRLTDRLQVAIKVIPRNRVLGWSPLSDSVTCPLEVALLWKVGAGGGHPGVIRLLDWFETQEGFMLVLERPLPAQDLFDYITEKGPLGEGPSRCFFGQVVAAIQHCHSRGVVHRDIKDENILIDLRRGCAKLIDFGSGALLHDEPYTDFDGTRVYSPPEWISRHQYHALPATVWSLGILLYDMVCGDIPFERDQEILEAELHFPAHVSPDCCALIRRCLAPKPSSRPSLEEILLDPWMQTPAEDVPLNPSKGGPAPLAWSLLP

T5 sequence (Q9BYP7 whole entry): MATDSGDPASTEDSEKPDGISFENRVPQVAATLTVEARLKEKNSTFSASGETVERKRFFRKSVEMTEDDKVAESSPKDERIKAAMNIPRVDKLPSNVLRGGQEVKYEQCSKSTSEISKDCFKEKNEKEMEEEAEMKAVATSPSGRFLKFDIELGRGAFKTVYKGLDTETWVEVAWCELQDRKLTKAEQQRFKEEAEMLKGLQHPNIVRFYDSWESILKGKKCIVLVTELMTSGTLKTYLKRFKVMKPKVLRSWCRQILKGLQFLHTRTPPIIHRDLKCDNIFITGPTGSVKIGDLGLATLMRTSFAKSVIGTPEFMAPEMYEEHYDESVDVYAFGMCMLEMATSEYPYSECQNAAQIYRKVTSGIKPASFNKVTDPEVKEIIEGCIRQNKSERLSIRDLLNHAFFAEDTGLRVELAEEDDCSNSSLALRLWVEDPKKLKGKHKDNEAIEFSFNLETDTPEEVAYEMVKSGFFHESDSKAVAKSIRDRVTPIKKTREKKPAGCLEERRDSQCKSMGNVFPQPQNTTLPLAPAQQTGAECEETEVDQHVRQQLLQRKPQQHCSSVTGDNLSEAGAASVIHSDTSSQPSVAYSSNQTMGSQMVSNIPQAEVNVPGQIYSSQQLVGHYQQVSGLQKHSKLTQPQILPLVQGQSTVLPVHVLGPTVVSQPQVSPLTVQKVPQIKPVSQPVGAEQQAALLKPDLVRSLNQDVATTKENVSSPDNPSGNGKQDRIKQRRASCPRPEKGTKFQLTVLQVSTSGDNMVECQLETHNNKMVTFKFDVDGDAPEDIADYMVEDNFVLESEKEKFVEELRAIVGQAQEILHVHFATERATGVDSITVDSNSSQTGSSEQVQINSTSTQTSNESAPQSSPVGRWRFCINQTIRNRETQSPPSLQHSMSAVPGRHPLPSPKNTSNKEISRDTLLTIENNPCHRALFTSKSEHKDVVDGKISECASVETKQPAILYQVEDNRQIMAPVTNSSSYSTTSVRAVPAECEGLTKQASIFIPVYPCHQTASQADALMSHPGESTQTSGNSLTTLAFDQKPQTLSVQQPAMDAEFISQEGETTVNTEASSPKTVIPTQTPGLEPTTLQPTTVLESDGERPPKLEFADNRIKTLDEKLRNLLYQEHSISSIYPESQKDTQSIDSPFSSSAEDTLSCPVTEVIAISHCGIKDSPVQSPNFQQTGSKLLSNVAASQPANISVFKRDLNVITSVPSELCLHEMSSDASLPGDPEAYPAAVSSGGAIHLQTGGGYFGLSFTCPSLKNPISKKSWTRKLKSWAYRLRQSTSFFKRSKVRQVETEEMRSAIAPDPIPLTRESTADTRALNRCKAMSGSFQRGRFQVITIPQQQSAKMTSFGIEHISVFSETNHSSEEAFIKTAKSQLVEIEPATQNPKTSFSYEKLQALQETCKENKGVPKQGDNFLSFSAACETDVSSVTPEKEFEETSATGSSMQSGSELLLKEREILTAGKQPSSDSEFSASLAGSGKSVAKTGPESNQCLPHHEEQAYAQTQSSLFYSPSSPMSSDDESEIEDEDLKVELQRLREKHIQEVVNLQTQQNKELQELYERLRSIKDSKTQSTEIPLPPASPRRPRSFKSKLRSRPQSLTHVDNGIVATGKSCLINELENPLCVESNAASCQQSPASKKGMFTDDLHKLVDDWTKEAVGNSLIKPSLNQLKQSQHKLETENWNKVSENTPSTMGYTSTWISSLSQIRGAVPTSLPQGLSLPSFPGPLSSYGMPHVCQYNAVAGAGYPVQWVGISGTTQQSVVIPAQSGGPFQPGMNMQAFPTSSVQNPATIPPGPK
T6 sequence (Q9NYY3 whole entry): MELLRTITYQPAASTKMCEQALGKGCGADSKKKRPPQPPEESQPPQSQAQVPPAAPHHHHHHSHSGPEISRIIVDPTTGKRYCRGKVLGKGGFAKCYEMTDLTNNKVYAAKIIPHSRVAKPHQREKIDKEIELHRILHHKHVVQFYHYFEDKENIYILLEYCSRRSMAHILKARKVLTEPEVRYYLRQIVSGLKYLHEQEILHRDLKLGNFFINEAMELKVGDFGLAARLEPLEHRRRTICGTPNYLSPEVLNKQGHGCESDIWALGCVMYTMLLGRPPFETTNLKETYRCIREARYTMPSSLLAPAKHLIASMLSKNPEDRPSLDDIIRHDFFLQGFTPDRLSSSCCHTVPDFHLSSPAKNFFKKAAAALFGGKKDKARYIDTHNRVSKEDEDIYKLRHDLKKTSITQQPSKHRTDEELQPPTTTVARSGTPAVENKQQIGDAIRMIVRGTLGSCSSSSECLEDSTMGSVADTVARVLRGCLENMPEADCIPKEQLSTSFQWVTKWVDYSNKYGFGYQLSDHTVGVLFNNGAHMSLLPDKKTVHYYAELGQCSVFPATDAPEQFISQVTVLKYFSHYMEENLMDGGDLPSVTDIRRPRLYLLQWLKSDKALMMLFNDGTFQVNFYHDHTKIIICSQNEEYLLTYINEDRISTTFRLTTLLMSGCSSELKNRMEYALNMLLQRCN
T3 sequence (Q15759 whole entry): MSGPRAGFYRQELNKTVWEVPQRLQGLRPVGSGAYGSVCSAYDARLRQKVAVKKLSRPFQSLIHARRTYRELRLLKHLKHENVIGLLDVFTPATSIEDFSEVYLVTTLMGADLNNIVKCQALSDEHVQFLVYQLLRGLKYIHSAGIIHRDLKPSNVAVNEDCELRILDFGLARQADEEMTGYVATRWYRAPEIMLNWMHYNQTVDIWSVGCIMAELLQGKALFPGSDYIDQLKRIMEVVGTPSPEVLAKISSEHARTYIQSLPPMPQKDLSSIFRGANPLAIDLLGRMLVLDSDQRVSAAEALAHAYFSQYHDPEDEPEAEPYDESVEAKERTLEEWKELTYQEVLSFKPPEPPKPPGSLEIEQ

Molecule `CNC(=O)c1ccc2c(c1)C(=O)c1ccc(Nc3ccc(F)c(NC(=O)C4CC4)c3)cc1CC2` [Compound 2015] has a remaining activity at 0.2 µM (340 wild-type kinases [1]; 0.2 µM 2015, read-out: DYRK3 residual activity) of 104%, a remaining activity at 1 µM (340 wild-type kinases [1]; 1 µM 2015, read-out: DYRK3 residual activity) of 107% and a remaining activity at 0.2 µM (340 wild-type kinases [1]; DYRK3, 0.2 µM, read-out: residual activity) of 104%. The remaining activity at 1 µM (340 wild-type kinases [1]; DYRK3, 1 µM, read-out: residual activity) was 107%, the remaining activity at 0.2 µM (340 wild-type kinases [2]; 0.2 µM 2015, read-out: PKCgamma residual activity) was 109% and the remaining activity at 1 µM (340 wild-type kinases [2]; 1 µM 2015, read-out: PKCgamma residual activity) was 86.6%. For the same molecule, the remaining activity at 0.2 µM (340 wild-type kinases [2]; PKCgamma, 0.2 µM, read-out: residual activity) was 109%, the remaining activity at 1 µM (340 wild-type kinases [2]; PKCgamma, 1 µM, read-out: residual activity) was 86.6% and the remaining activity at 0.2 µM (340 wild-type kinases [3]; 0.2 µM 2015, read-out: p38beta residual activity) was 1.85%. The remaining activity at 1 µM (340 wild-type kinases [3]; 1 µM 2015, read-out: p38beta residual activity) was 1.94%, the remaining activity at 0.2 µM (340 wild-type kinases [3]; p38beta, 0.2 µM, read-out: residual activity) was 1.85% and the remaining activity at 1 µM (340 wild-type kinases [3]; p38beta, 1 µM, read-out: residual activity) was 1.94%. For the same molecule, the remaining activity at 1 µM (340 wild-type kinases [4]; 1 µM 2015, read-out: NEK1 residual activity) was 81.3%, the remaining activity at 1 µM (340 wild-type kinases [4]; NEK1, 1 µM, read-out: residual activity) was 81.3% and the remaining activity at 0.2 µM (340 wild-type kinases [4]; read-out: NEK1 residual activity) was 86.5%. The remaining activity at 0.2 µM (340 wild-type kinases [4]; read-out: residual activity) was 86.5%, the remaining activity at 0.2 µM (340 wild-type kinases [5]; 0.2 µM 2015, read-out: WNK3 residual activity) was 121% and the remaining activity at 1 µM (340 wild-type kinases [5]; 1 µM 2015, read-out: WNK3 residual activity) was 113%. The remaining activity at 0.2 µM (340 wild-type kinases [5]; WNK3, 0.2 µM, read-out: residual activity) was 121%, the remaining activity at 1 µM (340 wild-type kinases [5]; WNK3, 1 µM, read-out: residual activity) was 113% and the remaining activity at 0.2 µM (340 wild-type kinases [6]; 0.2 µM 2015, read-out: SNK residual activity) was 103%. For the same molecule, the remaining activity at 1 µM (340 wild-type kinases [6]; 1 µM 2015, read-out: SNK residual activity) was 97.3%, the remaining activity at 0.2 µM (340 wild-type kinases [6]; SNK, 0.2 µM, read-out: residual activity) was 103% and the remaining activity at 1 µM (340 wild-type kinases [6]; SNK, 1 µM, read-out: residual activity) was 97.3%. The remaining activity at 0.2 µM (340 wild-type kinases [7]; 0.2 µM 2015, read-out: PIM2 residual activity) was 119%, the remaining activity at 1 µM (340 wild-type kinases [7]; 1 µM 2015, read-out: PIM2 residual activity) was 98.6% and the remaining activity at 0.2 µM (340 wild-type kinases [7]; PIM2, 0.2 µM, read-out: residual activity) was 119%. For the same molecule, the remaining activity at 1 µM (340 wild-type kinases [7]; PIM2, 1 µM, read-out: residual activity) was 98.6%.
